Experiment [1] relates to Candida parapsilosis 937 A. The experiment is described as follows: Minimum Inhibitory Concentration (MIC) by broth dilution in microtitre tray, Candida parapsilosis 937 A. The format is cell-based. To be noted: 37° C., inoculum 10^5. As for the experimental part: (§1) The Minimum Inhibitory Concentration (MIC) was determined by diluting the test compound in a broth medium in a microtitre tray. The organisms, which had been grown previously in a broth medium (yeast nitrogen base+1% glucose), were diluted and added to the wells to provide a final inoculum of approximately 10^5 colony-forming units per well. The trays were incubated at 37° C. and the turbidity of each well noted at intervals. The MIC was taken as the lowest concentration (in μg/ml) which prevented significant growth. |Minimum Inhibitory Concentration (μg/ml) |(determined after 2 and 3 days incubation) | *Inoculum 10^5 cells/ml

Another experiment deals with Candida albicans 73/079. In words: Minimum Inhibitory Concentration (MIC) by broth dilution in microtitre tray, Candida albicans 73/079. The format is cell-based. The conditions noted are these: 37° C., inoculum 10^5. The protocol:
as §1

[2] abbreviates: 48 h, determined after 2 days incubation.
Setting [3] is: 72 h, determined after 3 days incubation.
The mark [4] stands for this setting: 48 h, Candida albicans 73/079, determined after 2 days incubation.
[5] abbreviates: 72 h, Candida albicans 73/079, determined after 3 days incubation.

Structures are written as SMILES. In brackets after ≈: the same amount, converted by molar mass.

Take `C[C@@H]1[C@H](O)[C@@H](C)/C=C/C=C/C=C/C=C/C=C/C=C/C=C/[C@H](O[C@@H]2O[C@H](C)[C@@H](O)[C@H](N)[C@@H]2O)C[C@@H]2OC(=C[C@H](O)[C@H]2C(=O)O)C[C@@H](O)C[C@@H](O)[C@H](O)CC[C@@H](O)C[C@@H](O)CC(=O)O[C@H]1C` [Example E6, 13,14-Anhydroamphotericin B]: the MIC (commonly the least concentration at which growth counts as inhibited) in experiment [1] (setting [2]) is 4 µg/mL (≈ 4.41 µM); in experiment [1] (setting [3]) it was 8 µg/mL (≈ 8.83 µM); against Candida albicans 73/079 (setting [4]), 2 µg/mL (≈ 2.21 µM); in the experiment on Candida albicans 73/079 (setting [5]) it was 4 µg/mL (≈ 4.41 µM).
With `COC(=O)[C@H]1[C@@H]2C[C@@H](O[C@@H]3O[C@H](C)[C@@H](O)[C@H](N)[C@@H]3O)/C=C/C=C/C=C/C=C/C=C/C=C/C=C/[C@H](C)[C@@H](O)[C@@H](C)[C@H](C)OC(=O)C[C@H](O)C[C@H](O)CC[C@@H](O)[C@H](O)C[C@H](O)CC(=C[C@@H]1O)O2` [Example E10], the minimum inhibitory concentration (MIC) in experiment [1] (setting [2]) turned out to be 32 µg/mL (≈ 34.8 µM); in experiment [1] (setting [3]) it was 32 µg/mL (≈ 34.8 µM); against Candida albicans 73/079 (setting [4]), 16 µg/mL (≈ 17.4 µM); against Candida albicans 73/079 (setting [5]), 32 µg/mL (≈ 34.8 µM).
As for `C[C@@H]1[C@H](O)[C@@H](C)/C=C/C=C/C=C/C=C/C=C/C=C/C=C/[C@H](O[C@@H]2O[C@H](C)[C@@H](O)[C@H](N)[C@@H]2O)C[C@@H]2OC(=C[C@H](O)[C@H]2CO)C[C@@H](O)C[C@@H](O)[C@H](O)CC[C@@H](O)C[C@@H](O)CC(=O)O[C@H]1C` [Example E12], the minimal inhibitory concentration (MIC) was 8 µg/mL (≈ 8.97 µM) in experiment [1] (setting [2]), 16 µg/mL (≈ 17.9 µM) in experiment [1] (setting [3]), 4 µg/mL (≈ 4.48 µM) in the experiment on Candida albicans 73/079 (setting [4]) and 8 µg/mL (≈ 8.97 µM) against Candida albicans 73/079 (setting [5]).
